US11274115B2, “Imidazoquinoline derivatives and their use in therapy” (GLAXOSMITHKLINE BIOLOGICALS SA, priority 2016, dated 2022)
Where two headings read alike, the source gives them in different places.

Key:
Assay type in all cases: cell-based
human TLR8 = biological target: T1, human TLR8 (Homo sapiens, UniProt Q9NR97); test: hTLR8 agonist reporter assay in HEK293 cells (NFκB-SEAP); settings: for EC50: read-out: hTLR8 ED50; for hTLR8 agonist activity, in words: Table 3, FIG. 6
T1 construct: host or cells: HEK293
T1 sequence (Q9NR97 27-1041): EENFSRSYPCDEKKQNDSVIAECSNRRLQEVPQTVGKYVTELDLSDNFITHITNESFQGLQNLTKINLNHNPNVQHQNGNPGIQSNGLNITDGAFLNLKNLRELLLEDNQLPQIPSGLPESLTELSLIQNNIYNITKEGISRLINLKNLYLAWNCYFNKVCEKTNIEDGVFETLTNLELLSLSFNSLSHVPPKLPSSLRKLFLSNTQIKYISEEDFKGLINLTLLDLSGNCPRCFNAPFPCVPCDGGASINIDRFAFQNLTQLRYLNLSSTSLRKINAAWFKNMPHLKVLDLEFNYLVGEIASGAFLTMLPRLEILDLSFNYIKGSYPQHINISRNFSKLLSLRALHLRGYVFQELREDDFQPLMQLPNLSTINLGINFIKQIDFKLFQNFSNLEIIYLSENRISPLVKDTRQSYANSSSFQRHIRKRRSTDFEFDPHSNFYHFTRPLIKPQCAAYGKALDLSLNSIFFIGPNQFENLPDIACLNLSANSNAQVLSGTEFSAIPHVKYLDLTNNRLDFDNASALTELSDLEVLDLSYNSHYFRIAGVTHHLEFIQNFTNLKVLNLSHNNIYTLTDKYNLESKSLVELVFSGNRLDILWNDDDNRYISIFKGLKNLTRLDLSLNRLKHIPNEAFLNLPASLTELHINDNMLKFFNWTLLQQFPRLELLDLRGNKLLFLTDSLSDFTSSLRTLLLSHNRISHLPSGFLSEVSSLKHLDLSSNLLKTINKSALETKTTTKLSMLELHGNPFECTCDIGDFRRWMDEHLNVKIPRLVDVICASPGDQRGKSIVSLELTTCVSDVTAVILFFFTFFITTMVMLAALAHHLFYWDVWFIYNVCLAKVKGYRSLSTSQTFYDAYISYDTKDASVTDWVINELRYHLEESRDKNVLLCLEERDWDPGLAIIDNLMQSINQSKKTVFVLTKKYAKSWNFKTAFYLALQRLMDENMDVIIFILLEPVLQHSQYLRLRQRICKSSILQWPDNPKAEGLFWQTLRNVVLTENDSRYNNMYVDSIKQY
Description: (§1) Assay for hTLR7 and hTLR8 Agonist Activity in HEK-293 Cells
(§2) Determination of TLR agonist activity was performed using the HEK293 […]. This assay measures TLR7 and TLR8 selectivity and potency of the compounds tested. HEK293 cells expressing human TLR7 or TLR8 and NFκB responsive Secreted Embryonic Alkaline Phosphatase (SEAP) reporter gene were obtained from InvivoGen (San Diego, Calif.). These cells were maintained in culture media of Dulbecco's Modified Eagle Medium (DMEM) (Invitrogen, Grand Island, N.Y.), 10% Fetal Bovine Serum (FBS) (Sigma, St. Louis, Mo.) and selection antibiotics (Invitrogen, and Invivogen). HEK293 stably transfected with human TLR7 (hTLR7) or human TLR8 (hTLR8) were stimulated for 24 h with aqueous formulations of test compounds and culture supernatants were analyzed for NFκB activation using the colorimetric SEAP detection kit QuantBlue (InvivoGen).

human TLR7 = biological target: T2, human TLR7 (Homo sapiens, UniProt Q9NYK1); test: hTLR7 agonist reporter assay in HEK293 cells (NFκB-SEAP); settings: for EC50: read-out: hTLR7 ED50; for hTLR7/8 ratio: hTLR7 ED50 over hTLR8 ED50; for hTLR7 agonist activity, in words: Table 3, FIG. 5
T2 construct: host or cells: HEK293
T2 sequence (Q9NYK1 27-1049): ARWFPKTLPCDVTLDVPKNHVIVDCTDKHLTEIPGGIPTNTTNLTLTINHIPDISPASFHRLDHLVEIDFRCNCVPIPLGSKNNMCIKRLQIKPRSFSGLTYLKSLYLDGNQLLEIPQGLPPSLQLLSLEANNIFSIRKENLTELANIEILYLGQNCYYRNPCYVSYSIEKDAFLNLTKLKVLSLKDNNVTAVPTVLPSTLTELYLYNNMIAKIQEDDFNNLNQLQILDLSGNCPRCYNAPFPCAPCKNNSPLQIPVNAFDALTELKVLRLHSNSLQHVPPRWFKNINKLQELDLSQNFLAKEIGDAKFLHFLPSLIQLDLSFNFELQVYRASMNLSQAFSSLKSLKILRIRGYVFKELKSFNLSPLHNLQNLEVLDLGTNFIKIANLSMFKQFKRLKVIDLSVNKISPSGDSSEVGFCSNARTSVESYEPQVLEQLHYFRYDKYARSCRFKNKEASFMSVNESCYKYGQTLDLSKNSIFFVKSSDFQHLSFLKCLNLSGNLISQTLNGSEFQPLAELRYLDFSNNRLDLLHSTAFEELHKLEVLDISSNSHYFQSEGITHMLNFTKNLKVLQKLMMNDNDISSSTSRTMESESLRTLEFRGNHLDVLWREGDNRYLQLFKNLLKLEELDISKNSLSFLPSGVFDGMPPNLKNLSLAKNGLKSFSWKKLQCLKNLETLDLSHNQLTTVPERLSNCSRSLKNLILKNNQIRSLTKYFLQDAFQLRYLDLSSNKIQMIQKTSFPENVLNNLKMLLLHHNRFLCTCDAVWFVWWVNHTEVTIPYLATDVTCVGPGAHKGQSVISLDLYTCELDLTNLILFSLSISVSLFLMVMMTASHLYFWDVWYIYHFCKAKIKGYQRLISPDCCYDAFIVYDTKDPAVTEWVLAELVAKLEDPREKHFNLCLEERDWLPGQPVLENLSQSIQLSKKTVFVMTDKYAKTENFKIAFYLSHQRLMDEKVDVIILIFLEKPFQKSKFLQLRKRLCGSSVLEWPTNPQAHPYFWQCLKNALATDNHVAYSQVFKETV
Description: as §1, §2

[1] = test system: human peripheral blood mononuclear cells (hPBMCs); test: IFN-γ induction in hPBMCs; settings: 24 h
Description: (§3) Assays to Measure Cytokine Induction
(§4) Test compounds were evaluated for cytokine induction in human peripheral blood mononuclear cells (hPBMCs).
(§5) Primary human PBMCs were isolated from fresh blood from healthy donors via Ficoll gradient separation and plated at 0.5×10^6 cells/well in 96-well tissue culture plates (RPMI-1640 plus 10% FBS). hPBMCs were maintained with RPMI-1640 culture media (Invitrogen, Grand Island, N.Y.), antibiotics (Invitrogen) and 10% FBS (Sigma).
(§6) Incubation and Assays for IFN-γ, IFN-α and TNF-α
(§7) hPBMCs were stimulated for 24 h with aqueous formulations of test compounds. Culture supernatants were analyzed for TNF-α and IFN-γ induction using multiplex kits (FluoroKine multiplex kits from R&D Systems, Minneapolis, Minn.) and for IFN-α induction using human IFN-α VeriKine ELISA kit (Pestka Biomedical Laboratories, Inc., Piscataway, N.J.).

[2] = test system: human peripheral blood mononuclear cells (hPBMCs); test: TNF-α induction in hPBMCs; settings: 24 h
Description: as §3, §4, §5, §6, §7

[3] = test system: human peripheral blood mononuclear cells (hPBMCs); test: IFN-α induction in hPBMCs; settings: 24 h
Description: as §3, §4, §5, §6, §7

[4] = Table 4, FIG. 8, another occasion
[5] = Table 4, FIG. 7, another occasion
[6] = Table 2, FIG. 4, another occasion, * = only very low levels of NFKB activation were detected
[7] = Table 1, FIG. 2, 24 h stimulation, aqueous formulations
[8] = Table 1, FIG. 1, 24 h stimulation, aqueous formulations
[9] = Table 2, FIG. 3, another occasion, * = only very low levels of NFKB activation were detected
[10] = Table 3, FIG. 6, another occasion, * = only very low levels of NFKB activation were detected
[11] = Table 3, FIG. 5, another occasion, * = only very low levels of NFKB activation were detected

| SMILES | EC50 (human TLR8; [4]) | EC50 (human TLR7; [5]) | EC50 (human TLR8; [6]) | TNF-α induction, in words ([2]; FIG. 13) | hTLR7/8 ratio (human TLR7; Table 1) | EC50 (human TLR7; [9]) | hTLR7/8 ratio (human TLR7; Table 2) | hTLR8 agonist activity, in words (human TLR8) | EC50 (human TLR8; [10]) | IFN-α induction, in words ([3]; FIG. 14, another occasion) | TNF-α induction, in words ([2]; FIG. 15, another occasion) | hTLR7 agonist activity, in words (human TLR7) | EC50 (human TLR7; [11]) | hTLR7/8 ratio (human TLR7; Table 3) | also measured |
| --- | --- | --- | --- | --- | --- | --- | --- | --- | --- | --- | --- | --- | --- | --- | --- |
| CCCCCCCCCCCCCCCC(=O)OC[C@H](COP(=O)(O)OCCOc1ccc2c(c1)nc(N)c1nc(CCCC)n(CCO)c12)OC(=O)CCCCCCCCCCCCCCC [Example 7] | 3810 nM | 14600 nM |  |  |  |  |  |  |  |  |  |  |  |  |  |
| CCCCc1nc2c(N)nc3cc(OCCOP(=O)(O)OCCOCCOCCO[C@H]4CC[C@@]5(C)C(=CC[C@H]6[C@@H]7CC[C@H]([C@H](C)CCCC(C)C)[C@@]7(C)CC[C@@H]65)C4)ccc3c2n1CCO [Example 4] |  |  | 31900 nM |  |  |  |  |  |  |  |  |  |  |  |  |
| CCCCCCCC/C=C\CCCCCCCC(=O)OC[C@H](COP(=O)(O)OCCn1c(CCCC)nc2c(N)nc3ccccc3c21)OC(=O)CCCCCCC/C=C\CCCCCCCC [Comparative Example 2, reference compound] |  |  | 39200 nM | not significantly effective at inducing TNF-α | 1.3 | 55400 nM | 1.4 |  |  |  |  |  |  |  | IFN-γ induction, in words ([1]; FIG. 9): did not induce any IFN-γ; IFN-γ induction, in words ([1]; FIG. 11, another occasion): did not induce IFN-γ; EC50 (human TLR8; [7]): 26000 nM; EC50 (human TLR7; [8]): 34600 nM |
| CCCCCCCC/C=C\CCCCCCCC(=O)OC[C@H](COP(=O)(O)OCCCCOc1ccc2c(c1)nc(N)c1nc(CCCC)n(CCO)c12)OC(=O)CCCCCCC/C=C\CCCCCCCC [Example 5] |  |  |  |  |  |  |  | very weak agonist of hTLR7 or hTLR8 | 6600 nM | potent but at higher dose | very weak effect | very weak agonist of hTLR7 or hTLR8 | 10500 nM | 1.6 |  |
| CCCCCCCCCCCCCCCC(=O)OC[C@H](COCCOCCOCCOP(=O)(O)OCCOc1ccc2c(c1)nc(N)c1nc(CCCC)n(CCO)c12)OC(=O)CCCCCCCCCCCCCCC [Example 2] | 810 nM | 6100 nM |  |  |  |  |  |  |  |  |  |  |  |  |  |
| CCCCc1nc2c(N)nc3cc(OCCCCO)ccc3c2n1CCO [Comparative Example 4] |  |  |  |  |  |  |  | good agonist of hTLR7 and hTLR8 | 2200 nM | did not induce IFN-α | effective at inducing TNF-α | good agonist of hTLR7 and hTLR8 | 1600 nM | 0.7 |  |
| CCCCCCCC/C=C\CCCCCCCC(=O)OC[C@H](COP(=O)(O)OCCOCCOCCOc1ccc2c(c1)nc(N)c1nc(CCCC)n(CCO)c12)OC(=O)CCCCCCC/C=C\CCCCCCCC [Example 6] |  |  |  |  |  |  |  | reasonably potent agonist of hTLR8 | 5800 nM | potent, but less so than Example 1 | effective but less potent | very weak agonist of hTLR7 | 8700 nM | 1.5 |  |
| CCCCc1nc2c(N)nc3cc(OCCOCCOCCO)ccc3c2n1CCO [Comparative Example 5] |  |  |  |  |  |  |  | quite weak agonist of hTLR7 and hTLR8 | 16300 nM | did not induce IFN-α | effective but less potent | quite weak agonist of hTLR7 and hTLR8 | 13200 nM | 0.8 |  |
| CCCCc1nc2c(N)nc3ccccc3c2n1CCO [Comparative Example 1, reference compound] | 610 nM | 1500 nM | 400 nM | potent at inducing TNF-α | 3.1 | 1000 nM | 2.3 |  | 720 nM | Weaker effects | effective at inducing TNF-α |  | 1100 nM | 1.5 | IFN-γ induction, in words ([1]; FIG. 11, another occasion): the most potent at inducing IFN-γ; IFN-α induction, in words ([3]; FIG. 16, another occasion): induced little IFN-α; hTLR7/8 ratio (human TLR7; Table 4): 2.4 |
| CCCCc1nc2c(N)nc3cc(OCCO)ccc3c2n1CCO [Comparative Example 3] |  |  | 800 nM | potent at inducing TNF-α | 15.5 | 2400 nM | 2.9 |  | 1100 nM | Weaker effects | effective at inducing TNF-α |  | 2200 nM | 1.9 | EC50 (human TLR8; [7]): 100 nM; IFN-α induction, in words ([3]; FIG. 10): equipotent at inducing IFN-α and these were more potent than Comparative Example 1 and Comparative Example 2 in this assay at a lower dose; EC50 (human TLR7; [8]): 1560 nM |
